The molecules below were run against T1, HCV polymerase (Hepatitis C virus genotype 1b, UniProt Q9WMX2) (assay: Polymerase assay of Biological Example 1 (IC50 values of Table 3)). Conditions: IC50 values of Table 3, polymerase assay of Biological Example 1; read-out: NS5B-enzyme3.
T1 construct: (His)6 (C); made in house; host or cells: XL-1 cells (E. coli, by own knowledge)
Format: biochemical
From the text: A number of assays have been published to assess these activities. A general method that assesses the gross increase of HCV virus in culture was disclosed in U.S. Pat. No. 5,738,985 to Miles et al. In vitro assays have been reported in Ferrari et al. Jnl. of Vir., 73:1649-1654, 1999; Ishii et al., Hepatology, 29:1227-1235, 1999; Lohmann et al., Jnl of Bio. Chem., 274:10807-10815, 1999; and Yamashita et al., Jnl. of Bio. Chem., 273:15479-15486, 1998.
WO 97/12033, filed on Sep. 27, 1996, by Emory University, listing C. Hagedorn and A. Reinoldus as inventors, which claims priority to U.S. Provisional Patent Application Ser. No. 60/004,383, filed on September 1995, described an HCV polymerase assay that can be used to evaluate the activity of the of the compounds described herein. Another HCV polymerase assay has been reported by Bartholomeusz, et al., Hepatitis C Virus (HCV) RNA polymerase assay using cloned HCV non-structural proteins; Antiviral Therapy 1996:1 (Supp 4) 18-24.

| Molecule | IC50 [nM] |
| --- | --- |
| CC(C)(C)C#Cc1cc(N2C(=O)CN(S(=O)(=O)c3ccccc3OC(F)(F)F)C[C@H]2C2CCCCC2)c(C(=O)O)s1 [Compound 249, 3-[(R)-2-Cyclohexyl-6-oxo-4-(2-trifluoromethoxy-benzenesulfonyl)-piperazin-1-yl]-5-(3,3-dimethyl-but-1-ynyl)-thiophene-2-carboxylic acid] | 19 |
| COc1cc(S(=O)(=O)N2CC(=O)N(c3cc(C#CC(C)(C)C)sc3C(=O)O)[C@H](C3CCCCC3)C2)ccc1F [Compound 283, 3-[(R)-2-Cyclohexyl-4-(4-fluoro-3-methoxy-benzenesulfonyl)-6-oxo-piperazin-1-yl]-5-(3,3-dimethyl-but-1-ynyl)-thiophene-2-carboxylic acid] | 4 |
| CC(C)(C)C#Cc1cc(N2C(=O)[C@@H](CC(O)CO)OC[C@H]2C2CCCCC2)c(C(=O)O)s1 (stereo partly drawn) [Compound 10, 3-[(2R,5R)-5-Cyclohexyl-2-(2,3-dihydroxy-propyl)-3-oxo-morpholin-4-yl]-5-(3,3-dimethyl-but-1-ynyl)-thiophene-2-carboxylic acid] | 3 |
| O=C(O)c1sc(-c2ccccc2)cc1N1C(=O)CN(Cc2cccc(F)c2N2CCOCC2)C[C@H]1C1CCCCC1 [Compound 266, 3-[(R)-2-Cyclohexyl-4-(3-fluoro-2-morpholin-4-yl-benzyl)-6-oxo-piperazin-1-yl]-5-phenyl-thiophene-2-carboxylic acid] | 142 |
| CC(C)(C)C#Cc1cc(N2C(=O)C(CCCS(C)(=O)=O)OC[C@H]2C2CCCCC2)c(C(=O)O)s1 (stereo partly drawn) [Compound 306, 3-[(R)-5-Cyclohexyl-2-(3-methanesulfonyl-propyl)-3-oxo-morpholin-4-yl]-5-(3,3-dimethyl-but-1-ynyl)-thiophene-2-carboxylic acid] | 5.3 |
| O=C(O)c1sc(-c2ccccc2)cc1N1C(=O)CN(CC2CCCCC2)C[C@H]1C1CCCCC1 [Compound 265, 3-((R)-2-Cyclohexyl-4-cyclohexylmethyl-6-oxo-piperazin-1-yl)-5-phenyl-thiophene-2-carboxylic acid] | 601 |
| Cc1ccccc1CN1CC(=O)N(c2cc(-c3ccccc3)sc2C(=O)O)[C@H](C2CCCCC2)C1 [Compound 269, 3-[(R)-2-Cyclohexyl-4-(2-methyl-benzyl)-6-oxo-piperazin-1-yl]-5-phenyl-thiophene-2-carboxylic acid] | 330 |
| Cc1cccc(CN2CC(=O)N(c3cc(-c4ccccc4)sc3C(=O)O)[C@H](C3CCCCC3)C2)c1 [Compound 263, 3-[(R)-2-Cyclohexyl-4-(3-methyl-benzyl)-6-oxo-piperazin-1-yl]-5-phenyl-thiophene-2-carboxylic acid] | 108 |
| CC(C)(C)OC(=O)N1CC(=O)N(c2cc(-c3ccccc3)sc2C(=O)O)[C@H](C2CCCCC2)C1 [Compound 14, (R)-4-(2-Carboxy-5-phenyl-thiophen-3-yl)-3-cyclohexyl-5-oxo-piperazine-1-carboxylic acid tert-butyl ester] | 3650 |
| Cc1cccc(C)c1CN1CC(=O)N(c2cc(-c3ccccc3)sc2C(=O)O)[C@H](C2CCCCC2)C1 [Compound 264, 3-[(R)-2-Cyclohexyl-4-(2,6-dimethyl-benzyl)-6-oxo-piperazin-1-yl]-5-phenyl-thiophene-2-carboxylic acid] | 538 |
| O=C(O)c1sc(-c2ccccc2)cc1N1C(=O)CN(CCc2ccccc2)C[C@H]1C1CCCCC1 [Compound 268, 3-((R)-2-Cyclohexyl-6-oxo-4-phenethyl-piperazin-1-yl)-5-phenyl-thiophene-2-carboxylic acid] | 620 |
| O=C(O)c1sc(-c2ccccc2)cc1N1C(=O)CN(Cc2cccc(-n3cccc3)c2)C[C@H]1C1CCCCC1 [Compound 261, 3-[(R)-2-Cyclohexyl-6-oxo-4-(3-pyrrol-1-yl-benzyl)-piperazin-1-yl]-5-phenyl-thiophene-2-carboxylic acid] | 199 |
| CN(C)c1ccc(CN2CC(=O)N(c3cc(-c4ccccc4)sc3C(=O)O)[C@H](C3CCCCC3)C2)cc1 [Compound 270, 3-[(R)-2-Cyclohexyl-4-(4-dimethylamino-benzyl)-6-oxo-piperazin-1-yl]-5-phenyl-thiophene-2-carboxylic acid] | 19 |
| 3-[(2S,5R)-5-Cyclohexyl-2-(2,3-dihydroxy-propyl)-2-methyl-3-oxo-morpholin-4-yl]-5-(3,3-dimethyl-but-1-ynyl)-thiophene-2-carboxylic acid [Compound 326] | 882 |

The molecules below were run on HCV replicon I389luc-ubi-neo/NS3-3′/ET in ET (Huh-lucubineo-ET) cells (assay: Replicon assay (Biological Example 2), luciferase readout). Conditions: Hepatitis C virus; ET cells, luciferase activity 48 hours after compound.
Format: cell-based
Procedure: A cell line, ET (Huh-lucubineo-ET) was used for screening of compounds for inhibiting HCV RNA dependent RNA polymerase. The ET cell line was stably transfected with RNA transcripts harboring a I389luc-ubi-neo/NS3-3′/ET; replicon with firefly luciferase-ubiquitin-neomycin phosphotransferase fusion protein and EMCV-IRES driven NS3-5B polyprotein containing the cell culture adaptive mutations (E1202G; T12801; K1846T) (Krieger at al, 2001 and unpublished). The ET cells were grown in DMEM (Dulbeco's Modified Eagle's Medium), supplemented with 10% fetal calf serum, 2 mM Glutamine, Penicillin (100 IU/mL)/Streptomycin (100 μg/mL), 1× nonessential amino acids, and 250 μg/mL G418 (“Geneticin”). Reagents were all available through Life Technologies (Bethesda, Md.). The cells were plated at 0.5-1.0×10^4 cells/well in the 96 well plates and incubated for 24 hrs before adding test compound. The compounds were added to the cells to achieve a final concentration of 0.1 nM to 50 μM and a final DMSO (dimethylsulfoxide) concentration of 0.5%. Luciferase activity was measured 48 hours later by adding a lysis buffer and the substrate (Catalog number Glo-lysis buffer E2661 and Bright-Glo luciferase system E2620 Promega, Madison, Wis.). Cells should not be too confluent during the assay. Percent inhibition of replication data was plotted relative to no compound control. To determine the EC50 (effective concentration at which 50% of the maximum inhibition was observed), a 10 point, 3-fold serial dilution for each compound was used, which spans a concentration range of […]. EC50 values were calculated by fitting % inhibition at each concentration to the following equation: % inhibition=100%/[(EC50/[I])^b+1] where b was Hill's coefficient.
In other aspects the EC50 was equal to or less than 10 μM. In still other aspects the EC50 was equal to or less than 1 μM.

| Molecule | IC50 [nM] |
| --- | --- |
| COc1cc(S(=O)(=O)N2CC(=O)N(c3cc(C#CC(C)(C)C)sc3C(=O)O)[C@H](C3CCCCC3)C2)ccc1F [Compound 283, 3-[(R)-2-Cyclohexyl-4-(4-fluoro-3-methoxy-benzenesulfonyl)-6-oxo-piperazin-1-yl]-5-(3,3-dimethyl-but-1-ynyl)-thiophene-2-carboxylic acid] | ≤ 100 |
| CC(C)(C)C#Cc1cc(N2C(=O)[C@@H](CC(O)CO)OC[C@H]2C2CCCCC2)c(C(=O)O)s1 (stereo partly drawn) [Compound 10, 3-[(2R,5R)-5-Cyclohexyl-2-(2,3-dihydroxy-propyl)-3-oxo-morpholin-4-yl]-5-(3,3-dimethyl-but-1-ynyl)-thiophene-2-carboxylic acid] | ≤ 100 |
| Cc1oncc1S(=O)(=O)N1CC(=O)N(c2cc(C#CC(C)(C)C)sc2C(=O)O)[C@H](C2CCCCC2)C1 [Compound 240, 3-[(R)-2-Cyclohexyl-4-(5-methyl-isoxazole-4-sulfonyl)-6-oxo-piperazin-1-yl]-5-(3,3-dimethyl-but-1-ynyl)-thiophene-2-carboxylic acid] | ≤ 100 |
| O=C(O)c1sc(-c2ccc(F)cc2)cc1N1C(=O)CN(S(=O)(=O)c2ccc(N3CCCCC3)nc2)C[C@H]1C1CCCCC1 [Compound 235, 3-[(R)-2-Cyclohexyl-6-oxo-4-(3,4,5,6-tetrahydro-2H-[1,2′]bipyridinyl-5′-sulfonyl)-piperazin-1-yl]-5-(4-fluoro-phenyl)-thiophene-2-carboxylic acid] | ≤ 100 |
| O=C(O)c1sc(-c2ccc(F)cc2)cc1N1C(=O)CN(S(=O)(=O)c2ccc(N3CC4CC3CO4)nc2)C[C@H]1C1CCCCC1 (stereo partly drawn) [Compound 228, 3-{(R)-2-Cyclohexyl-4-[6-(2-oxa-5-aza-bicyclo[2.2.1]hept-5-yl)-pyridine-3-sulfonyl]-6-oxo-piperazin-1-yl}-5-(4-fluoro-phenyl)-thiophene-2-carboxylic acid] | ≤ 100 |
| CC1CCN(c2ccc(S(=O)(=O)N3CC(=O)N(c4cc(-c5ccccc5)sc4C(=O)O)C(C4CCCCC4)C3)cn2)CC1 (centres unmarked) [Compound 96, 3-[2-Cyclohexyl-4-(4-methyl-3,4,5,6-tetrahydro-2H-[1,2′]bipyridinyl-5′-sulfonyl)-6-oxo-piperazin-1-yl]-5-phenyl-thiophene-2-carboxylic acid] | ≤ 100 |
| C[C@@H]1CCCN1c1ccc(S(=O)(=O)N2CC(=O)N(c3cc(-c4ccc(Cl)cc4)sc3C(=O)O)[C@H](C3CCCCC3)C2)cn1 [Compound 201, 5-(4-Chloro-phenyl)-3-{(R)-2-cyc!ohexyl-4-[6-((R)-2-methyl-pyrrolidin-1-yl)-pyridine-3-sulfonyl]-6-oxo-piperazin-1-yl}-thiophene-2-carboxylic acid] | ≤ 100 |
| CN1CCN(c2ccc(-c3ccc(S(=O)(=O)N4CC(=O)N(c5cc(-c6ccccc6)sc5C(=O)O)[C@H](C5CCCCC5)C4)cn3)cn2)CC1 [Compound 224, 3-{(R)-2-Cyclohexyl-4-[6′-(4-methyl-piperazin-1-yl)-[2,3′]bipyridinyl-5-sulfonyl]-6-oxo-piperazin-1-yl}-5-phenyl-thiophene-2-carboxylic acid] | ≤ 100 |
| CC1(C)CCN(c2ccc(S(=O)(=O)N3CC(=O)N(c4cc(-c5ccccc5)sc4C(=O)O)[C@H](C4CCCCC4)C3)cn2)C1 [Compound 219, 3-{(R)-2-Cyclohexyl-4-[6-(3,3-dimethyl-pyrrolidin-1-yl)-pyridine-3-sulfonyl]-6-oxo-piperazin-1-yl}-5-phenyl-thiophene-2-carboxylic acid] | ≤ 100 |

Same assay, conditions: Hepatitis C virus; between 100 nM and 5.0 uM

| Molecule | IC50 [nM] |
| --- | --- |
| CC(C)(C)C#Cc1cc(N2C(=O)CN(S(=O)(=O)c3ccccc3OC(F)(F)F)C[C@H]2C2CCCCC2)c(C(=O)O)s1 [Compound 249, 3-[(R)-2-Cyclohexyl-6-oxo-4-(2-trifluoromethoxy-benzenesulfonyl)-piperazin-1-yl]-5-(3,3-dimethyl-but-1-ynyl)-thiophene-2-carboxylic acid] | 100 to 5000 |
| O=C(O)c1sc(-c2ccccc2)cc1N1C(=O)CC[C@H]1C1CCCCC1 [Compound 6, 3-((S)-2-Cyclohexyl-5-oxo-pyrrolidin-1-yl)-5-phenyl-thiophene-2-carboxylic acid] | 100 to 5000 |
| O=C(O)c1sc(-c2ccccc2)cc1N1C(=O)CN(S(=O)(=O)c2ccc(-c3ccncc3)nc2)C[C@H]1C1CCCCC1 [Compound 207] | 100 to 5000 |
